Positions count from the first letter of the chain named. Where two headings read alike, the source gives them in different places.

These results are taken from publication PMC7265552 (Scientific Reports, 2020).

The target of assay [1] is T1, mouse WT TYK2 (Mus musculus, UniProt Q9R117).
T1 construct: His-tagged recombinant human TYK2, mouse TYK2, and human TYK2 I960V mutant kinase domains were expressed in insect cell/baculovirus systems; His; made in house; host or cells: insect cell/baculovirus
T1 sequence (Q9R117 894-1166 limits assumed): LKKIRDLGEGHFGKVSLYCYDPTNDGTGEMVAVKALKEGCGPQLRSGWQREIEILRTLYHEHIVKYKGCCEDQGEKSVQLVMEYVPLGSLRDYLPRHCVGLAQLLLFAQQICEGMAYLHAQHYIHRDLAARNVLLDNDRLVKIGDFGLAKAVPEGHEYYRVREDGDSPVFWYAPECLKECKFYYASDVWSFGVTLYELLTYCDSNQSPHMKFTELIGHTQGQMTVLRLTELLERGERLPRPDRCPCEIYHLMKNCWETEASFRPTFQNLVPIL
As to the kind of experiment: JAK Caliper enzyme end-point IC50 assay, mouse WT TYK2. The class given is biochemical.

Assay [2] concerns the target T2, human WT TYK2 (Homo sapiens, UniProt P29597).
T2 construct: His-tagged recombinant human TYK2, mouse TYK2, and human TYK2 I960V mutant kinase domains were expressed in insect cell/baculovirus systems; His; made in house; host or cells: insect cell/baculovirus
T2 sequence (P29597 897-1176 limits assumed): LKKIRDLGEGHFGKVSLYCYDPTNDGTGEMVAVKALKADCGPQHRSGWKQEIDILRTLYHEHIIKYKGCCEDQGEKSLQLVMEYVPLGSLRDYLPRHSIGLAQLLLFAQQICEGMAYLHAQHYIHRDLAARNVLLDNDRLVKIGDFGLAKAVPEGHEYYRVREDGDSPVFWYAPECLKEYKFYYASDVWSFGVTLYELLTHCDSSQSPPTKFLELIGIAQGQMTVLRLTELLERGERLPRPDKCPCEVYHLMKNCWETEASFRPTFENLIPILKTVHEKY
As to the kind of experiment: JAK Caliper enzyme end-point IC50 assay, human WT TYK2. It is filed as biochemical. The settings on record: ATP 1 mM; geometric mean ± SD.

In assay [3] the target is T3, human TYK2 I960V mutant (Homo sapiens, UniProt P29597, I960V).
T3 sequence (P29597 897-1176 I960V limits assumed): T2 sequence (P29597 897-1176 limits assumed) with I64V
In words: JAK Caliper enzyme end-point IC50 assay, human TYK2 I960V mutant. The settings on record: read-out: Human TYK2 I960V IC50; ATP 1 mM; geometric mean ± SD.

The test system of assay [4] is IL-15 (JAK1/JAK3) induced pSTAT5. In words: Phospho-STAT inhibition in lymphocytes, IL-15, mouse WT. It is filed as cell-based, mouse (C57BL/6). The settings on record: Leukocyte, read-out: IL-15 (JAK1/JAK3) induced pSTAT5 IC50, Mouse WT.
Assay [5] relates to IL-12 (TYK2/JAK2) induced pSTAT4. As to the kind of experiment: Phospho-STAT inhibition in lymphocytes, IL-12, monkey. It is filed as cell-based, monkey (cynomolgus). As to conditions: Primates, Leukocyte, read-out: IL-12 (TYK2/JAK2) induced pSTAT4 IC50, Monkey WT.
For assay [6] the test system is unchanged. As to the kind of experiment: Phospho-STAT inhibition in lymphocytes, IL-12, human. The class given is cell-based. The settings on record: geomean ± SD, four experiments.
Assay [7] shares this test system. In words: Phospho-STAT inhibition in lymphocytes, IL-12, mouse WT. The class given is cell-based, mouse (C57BL/6). The settings on record: Leukocyte, read-out: IL-12 (TYK2/JAK2) induced pSTAT4 IC50, Mouse WT.
For assay [8], the system named is IL-12/IL-18 induced IFNγ production. In words: PK/PD IL-12/18 induced interferonγ production model, wild type mice. As to conditions: Mus musculus, 4 h, read-out: IC50 (IC50,u) for inhibition of IL-12/IL-18-induced IFNγ production. The class given is in vivo, C57BL/6 wild type mice.
Assay [9] relates to IL-12 (TYK2/JAK2) induced pSTAT4. In words: Phospho-STAT inhibition in lymphocytes, IL-12, mouse V980I knock-in. As to conditions: Lymphocyte, read-out: IL-12 (TYK2/JAK2) induced pSTAT4 IC50, Mouse V980I KI. It is filed as cell-based, mouse (C57BL/6 TYK2 V980I knock-in).
For assay [10] the test system is unchanged. As to the kind of experiment: Phospho-STAT inhibition in lymphocytes, IL-12, dog. It is filed as cell-based, dog (Beagle). As to conditions: Canis lupus familiaris, Leukocyte, read-out: IL-12 (TYK2/JAK2) induced pSTAT4 IC50, Dog WT.
Assay [11] concerns IL-12/IL-18 induced IFNγ production. As to the kind of experiment: PK/PD IL-12/18 induced interferonγ production model, TYK2 V980I mice. It is filed as in vivo, C57BL/6 TYK2 V980I mice. As to conditions: Mus musculus, 4 h, read-out: IC50 (IC50,u) for inhibition of IL-12/IL-18-induced IFNγ production.
In assay [12] the test system is IL-15 (JAK1/JAK3) induced pSTAT5. As to the kind of experiment: Phospho-STAT inhibition in lymphocytes, IL-15, human. The class given is cell-based. The settings on record: Leukocyte, read-out: IL-15 (JAK1/JAK3) induced pSTAT5 IC50, Human WT.

With `CNC(=O)c1ncc(Nc2nccc(N3C[C@H]4C[C@@]4(NC(=O)C4CC4)C3)n2)cc1C` [Compound 19], the IC50 in [1] (ATP 1 mM, geometric mean ± SD) turned out to be 8160 ± 2030 nM; in [2], 208 ± 51 nM; in assay [3] it was 7390 ± 1950 nM.

Consider `CCNC(=O)c1ccc(Nc2ncc(C)c(N3C[C@H]4C[C@@H]3CN4S(C)(=O)=O)n2)cc1` [Compound 15], for which the IC50 in assay [1] (ATP 1 mM, geometric mean ± SD) was determined as 5240 ± 605 nM; in assay [2], 371 ± 37 nM; in assay [3], 3590 ± 257 nM.

`Cc1cnc(Nc2cnn(C)c2)nc1N1C[C@H]2CC[C@@H](C1)N2C(=O)[C@@H]1CC1(F)F` [Compound 28]: the IC50 in assay [1] (ATP 1 mM, geometric mean ± SD) was found to be 180 ± 89 nM; in [2], 15 ± 6 nM; in [3], 55 ± 25 nM.

Take `Cn1cc(Nc2ncc(F)c(N3C[C@H]4C[C@@]4(NC(=O)[C@@H]4CC4(F)F)C3)n2)cn1` [Compound 26]: the IC50 was found to be 2120 ± 465 nM in assay [1] (ATP 1 mM, geometric mean ± SD); 38 ± 8 nM in assay [2]; 1560 ± 257 nM in [3].

Take `C[C@@H]1C2CN(c3nc(Nc4cn[nH]c4)ncc3F)C[C@@]21NC(=O)[C@H]1CC1(F)F` (some centres unmarked) [Compound 23]: the IC50 is 466 ± 78 nM in [1] (ATP 1 mM, geometric mean ± SD); 13 ± 4 nM in assay [2]; 388 ± 50 nM in [3].

Regarding `Cn1cc(Nc2nccc(N3C[C@H]4CC[C@@H](C3)N4CCC#N)n2)cn1` [Compound 22], the IC50 stood at 1330 ± 396 nM in assay [1] (ATP 1 mM, geometric mean ± SD); 73 ± 18 nM in assay [2]; 1020 ± 263 nM in [3].

With `Cc1cnc(Nc2cnn(C)c2)nc1N1C[C@H]2[C@@H](C)[C@@]2(NC(=O)C2CC2)C1` [Compound 21], the IC50 worked out at 1160 ± 1040 nM in assay [1] (ATP 1 mM, geometric mean ± SD); 50 ± 46 nM in assay [2]; 484 ± 369 nM in assay [3].

Consider `CCNC(=O)c1ncc(Nc2ncc(Cl)c(N3C[C@H]4C[C@@]4(NC(=O)C4CC4)C3)n2)cc1C` [Compound 18], for which the IC50 was determined as 841 ± 989 nM in assay [1] (ATP 1 mM, geometric mean ± SD); 35 ± 34 nM in assay [2]; 538 ± 622 nM in assay [3].

As for `Cn1cc(Nc2ncc(Cl)c(N3C[C@H]4CC[C@@H](C3)N4C(=O)[C@@H]3CC3(F)F)n2)cn1` [Compound 29], the IC50 came out at 100 ± 17 nM in assay [1] (ATP 1 mM, geometric mean ± SD); 8 ± 4 nM in assay [2]; 30 ± 1 nM in assay [3].

On to `CCNC(=O)c1ccc(Nc2nccc(N3C[C@H]4C[C@@H](C3)N4C(=O)C(F)(F)F)n2)cc1` [Compound 16], for which the IC50 is 3580 ± 1980 nM in assay [1] (ATP 1 mM, geometric mean ± SD); 135 ± 89 nM in [2]; 2570 ± 1560 nM in assay [3].

Take `C[C@@H]1[C@@H]2CN(c3nc(Nc4cnn(C)c4)ncc3F)C[C@]12NC(=O)[C@@H]1CC1(F)F` [PF-06673518]: the IC50 in assay [4] was 127 ± 6.7 nM; in [1], 1410 nM; in assay [5], 527 ± 147 nM; in assay [6] (Homo sapiens, Leukocyte, read-out: IL-12 (TYK2/JAK2) induced pSTAT4 IC50, Human WT, human leukocytes, no serum or other proteins), 64 nM; in assay [6] (read-out: IL-12 (TYK2/JAK2) induced pSTAT4 IC50, Human WT, human leukocytes, no serum or other proteins) it was 64.3 ± 10 nM; in [7], 518 ± 84 nM. The IC50 in [8] came out at 1280 nM; in assay [9], 128 ± 11 nM; in assay [10] it was 679 ± 254 nM; in [11] it was 26.6 nM; in assay [12] it was 135 ± 15 nM.

As to `Cc1cnc(Nc2cnn(CCO)c2)nc1N1CC2C[C@@]2(NC(=O)C2CC2)C1` (some centres unmarked) [Compound 20], the IC50 came to 784 ± 207 nM in assay [1] (ATP 1 mM, geometric mean ± SD); 67 ± 21 nM in [2]; 435 ± 174 nM in assay [3].

As to `CCNC(=O)c1ncc(Nc2ncc(F)c(N3C[C@H]4CC[C@@H](C3)N4CCC#N)n2)cc1C` [Compound 17], the IC50 in assay [1] (ATP 1 mM, geometric mean ± SD) was determined as 1520 ± 217 nM; in assay [2], 46 ± 11 nM; in assay [3], 1220 ± 220 nM.
